The source of these data is a melting point compilation (Tetko et al.).

SMILES strings stand for the structures.

`CCCCCCC1CCCC1` registered a melting point of -73 °C.

In turn, `Cc1cc(C)c2c(c1)OC(=O)C2` registered a melting point of 105 °C.

In the case of `COc1cc(/C=C/c2ccc([N+](=O)[O-])cc2[N+](=O)[O-])ccc1O`, the melting point stood at 191 °C.

As to `NC(=S)c1ccc(OCC(F)(F)F)nc1`, the melting point lay within 120 to 123 °C.

For the compound `CC(C)c1ccc(C=C[N+](=O)[O-])cc1`, the melting point is 35 to 38 °C.

`C=C1CC2C(CCC3(C)C(=O)CCC23)C2(C)C=CC(=O)C=C12` (stereo unspecified) gave a melting point of 190 °C.

`C=CCSc1ncccc1C(=O)O`: the melting point was in the range of 147 to 149 °C.

On to `CN(C)S(=O)(=O)Cl`, for which the melting point is -13 °C.

Compound `CC(=O)Nc1ccc(S)cc1` showed a melting point of 149 to 154 °C.

In turn, `CCCCCCCC(=O)c1ccccc1` came in with a melting point of 22.8 °C.

`O=C(Nc1ccc([N+](=O)[O-])cc1[N+](=O)[O-])C(C(F)(F)F)(C(F)(F)F)C(F)(F)F` returned a melting point of 164 °C.

Compound `Cc1cccc(CO)c1[N+](=O)[O-]` returned a melting point of 42 to 48 °C.

In turn, `N#CC(F)(Cl)Cl` came in with a melting point of -110 °C.

`CCCCCCCCCBr`: the melting point was -29 °C.

`O=Cc1cc(F)c(F)c(F)c1` yielded a melting point of 25.3 °C.

`CCC1(c2ccccc2)C(=O)N(COC)C(=O)N(COC)C1=O` had a melting point of 117 °C.

Compound `CCOC(=O)COC(=O)c1cc(Oc2ccc(C(F)(F)F)cc2Cl)ccc1[N+](=O)[O-]` gave a melting point of 65 °C.

`BrC(CCC(Br)C(Br)c1ccccc1)C(Br)c1ccccc1` (stereo unspecified): the melting point was 194 °C.

`CCCCCCOc1ccc(O)cc1` registered a melting point of 46 °C.

Compound `COc1cc(C=C2C(=O)NN=C2c2c(O)c3ccccc3n(C)c2=O)cc(OC)c1OC` displayed a melting point of 196 °C.

In the case of `C=C1C(=O)C23C(OC(C)=O)CC4C5(C)CCCC4(C(OC)OC5)C2C(OC(C)=O)CC1C3OC(C)=O` (stereo unspecified), the melting point stood at 71 °C.

In the case of `N#Cc1ccccc1OCC(O)CNCCNC(=O)Cc1ccc(O)cc1` (stereo unspecified), the melting point stood at 119 °C.

Compound `O=C(Oc1ccc2ccccc2c1-c1c(OC(=O)c2ccccc2)ccc2ccccc12)c1ccccc1` gave a melting point of 163 to 166 °C.

Turning to `C[C@@H](OC(C)(C)C)[C@H](NC(=O)OCC1c2ccccc2-c2ccccc21)C(=O)O`, the melting point was 131 to 134 °C.

For the compound `C=C=O`, the melting point is -151 °C.

Compound `C#CCO` returned a melting point of -51.8 °C.

Compound `CC1=C(C(=O)OCc2ccccc2)C(c2ccco2)NC(=S)N1` (stereo unspecified) registered a melting point of 164 °C.

For the compound `CSC(=Nc1ccccc1)C(C#N)=C(N)SC`, the melting point was 177 °C.

Take `Cc1cc(I)cnc1NCC(=O)OC(C)(C)C`: the melting point stood at 99 °C.

For the compound `CC(C)(C)C1CCCC1`, the melting point was -96 °C.

As to `OC12CCCCCC1c1ccccc12` (stereo unspecified), the melting point is 100 °C.

With `CCC(Br)=CBr`, the melting point was -49.5 °C.

Consider `O=Cc1ccc(OCC(=O)O)cc1`, for which the melting point was 198 °C.

Compound `COc1ccc(C#N)c2ccccc12` had a melting point of 102 °C.

The compound `CCCCCCCCCCCCCCCCCCCCCCCCCCCCCCO` showed a melting point of 88 °C.

`COC(=O)c1ccc(OC)c([N+](=O)[O-])c1` had a melting point of 111 °C.

Consider `O=[N+]([O-])c1ccc(CN2CCOCC2)cc1`, for which the melting point fell in the range of 79.6 to 80 °C.

Take `Brc1ccc2c(c1)CCO2`: the melting point was in the range of 49 to 50 °C.

As for `OCCN1CCN(c2nccc(C(F)(F)F)n2)CC1`, the melting point was in the range of 70 to 71 °C.

On to `Cc1nn2c(-c3ccccc3)nnc2s1`, for which the melting point is 192 to 194 °C.

Compound `CSCC(=O)O` showed a melting point of 14 °C.

`CCSc1sc(C#N)c2c1C(=O)CC(C)(C)C2`: the melting point fell in the range of 150 to 153 °C.

As to `Oc1ccc(Cl)nc1`, the melting point amounted to 155 °C.

In turn, `O=C(O)c1sccc1Br` had a melting point of 196 °C.

In turn, `Oc1ccccc1C=Nn1c(S)nnc1C(F)(F)F` registered a melting point of 155 °C.

Consider `Cc1cc(C)c(CC(=NOCC(=O)O)c2cc3ccccc3o2)c(C)c1`, for which the melting point was in the range of 143 to 144 °C.

The compound `CC(=O)C=C(C)N1CCCC1` returned a melting point of 114 to 116 °C.

`NCCCCC(=O)O` gave a melting point of 158 to 161 °C.

For `COc1ccc2nc(NN)nnc2c1`, the melting point lay in the range of 238 to 240 °C.

Regarding `CSc1ccc(Oc2cccc(F)c2C#N)cc1`, the melting point lay within 68 to 71 °C.

Regarding `O=[N+]([O-])c1ccc(CSc2ncnc3c2ncn3C2OC(CO)C(O)C2O)cc1` (stereo unspecified), the melting point lay in the range of 194 to 196 °C.

The compound `O=S(=O)(N(c1ccc(Cl)cn1)S(=O)(=O)C(F)(F)F)C(F)(F)F` showed a melting point of 46 °C.

With `CC(C)=C1C(=O)NN(c2ccccc2)C1=O`, the melting point worked out at 166 °C.

In turn, `N=C(N)NCC(=O)O` showed a melting point of 300 °C.

`N#CCc1ccccc1Br` registered a melting point of 19 °C.

Regarding `O=C(OCc1ccccc1)N1c2ccccc2CC1CO` (stereo unspecified), the melting point is 67 to 71 °C.

`ClC(Cl)N(C(Cl)Cl)C(Cl)Cl` came in with a melting point of 170 to 173 °C.

Take `CCN(CC)C(C)CN1c2ccccc2Sc2ccccc21` (stereo unspecified): the melting point was determined as 53 °C.

As for `Cc1nccn1-c1ccc(C#N)cc1`, the melting point was in the range of 138 to 141 °C.

For `O=C(CC(c1ccccc1)c1ccccc1)c1ccccc1`, the melting point came out at 96 °C.

With `Cc1ncsc1C(=O)O`, the melting point was 254 to 255 °C.

Compound `O=C(CBr)Oc1ccc([N+](=O)[O-])cc1` yielded a melting point of 86 °C.

Compound `CCC(Oc1c(I)cc(I)cc1I)C(=O)O` (stereo unspecified) had a melting point of 124 °C.

On to `CCOC(=O)NC(C)(C)Cc1ccc(Cl)cc1`, for which the melting point stood at 52.8 °C.

For the compound `O=CC=O`, the melting point was 15 °C.

With `CCCCCCCCCCCCCCCCC=O`, the melting point stood at 36 °C.

Turning to `CCCCCCCCCCCCCCCCCC(=O)OCC(O)CO` (stereo unspecified), the melting point was found to be 74 °C.

The compound `COc1ccc(CO)c(OC)c1` had a melting point of 37 to 40 °C.

In the case of `CCCCCC(=O)Nc1ccc(Cl)c(Cl)c1`, the melting point was determined as 106 °C.

For `NC(=S)c1ccc(-c2ccccn2)s1`, the melting point lay in the range of 198 to 200 °C.

Regarding `C=CCC#N`, the melting point was -87 °C.

Regarding `NC(=O)OCCCc1ccccc1`, the melting point was 102 °C.

Compound `CC(C(O)c1ccc(O)cc1)N1CCC(Cc2ccccc2)CC1` (stereo unspecified) displayed a melting point of 114 °C.

For `Cc1nc2ccccc2n1CCC(=O)NN1C(=O)CSC1c1ccccc1Cl` (stereo unspecified), the melting point was 250 °C.

On to `O=[N+]([O-])c1ccccc1-c1ccccc1[N+](=O)[O-]`, for which the melting point was 126 °C.

Compound `CC1=NNC(=N)Nc2c1c(=O)n(-c1ccccc1)c1ccccc21` returned a melting point of 227 °C.

In turn, `Brc1ccc2[nH]c3ccccc3c2c1` came in with a melting point of 195 to 197 °C.

Regarding `COc1ccc(C(=O)c2nn3c(nc(=O)c4ccccc43)s2)cc1`, the melting point worked out at 179 °C.

`O=C1/C(=C/c2ccc([N+](=O)[O-])cc2)SC(=S)N1CN1CCOCC1`: the melting point was found to be 169 °C.

Turning to `CN(C(=O)Cl)c1ccccc1`, the melting point was determined as 88.5 °C.

`CCOC(=O)/C(C#N)=C/c1ccc(-c2ccc(Br)cc2)o1` had a melting point of 167 °C.

`Cc1ccccc1N1C(=O)c2cc(S(N)(=O)=O)c(Cl)cc2NC1C` (stereo unspecified) returned a melting point of 252 °C.

In turn, `CCC#CCCCCC(=O)O` yielded a melting point of 14 °C.

The compound `CC1(C)c2cccc(P(C(C)(C)C)C(C)(C)C)c2Oc2c(P(C(C)(C)C)C(C)(C)C)cccc21` yielded a melting point of 155 °C.

In turn, `CCCc1nn(-c2ccccc2)c(=O)n1C(N)=O` came in with a melting point of 133 °C.

With `O=C(Oc1c(F)c(F)c(F)c(F)c1F)c1cc(C(F)(F)F)ccc1N1CCOCC1`, the melting point lay within 91 to 93 °C.

`CCOP(=S)(S)OCC` showed a melting point of -10 °C.

Consider `CCOC(=O)c1sc2sc(C#N)c(N)c2c1N`, for which the melting point turned out to be 260 °C.

In the case of `CSc1ncc(C(=O)O)n1Cc1ccccc1`, the melting point lay in the range of 178 to 179 °C.

Compound `O=C(O)CN(CCOCCOCCN(CC(=O)O)CC(=O)O)CC(=O)O` displayed a melting point of 240 to 245 °C.

Consider `N#CC1(O)CCCCC1`, for which the melting point amounted to 35 °C.

Compound `O=C1C=CC(=O)N1c1ccc(N2C(=O)C=CC2=O)cc1` yielded a melting point of 300 °C.

Compound `COC(=O)c1cc(C(=O)OC)cc([N+](=O)[O-])c1` yielded a melting point of 122 °C.

Consider `COC(=O)c1cc2cc(Br)ccc2s1`, for which the melting point fell in the range of 110 to 111 °C.

In the case of `OCC12CC3CC(CC(C3)C1)C2`, the melting point amounted to 140 °C.

Take `O=C(O)[C@H](O)[C@@H](O)[C@H](O)[C@H](O)CO`: the melting point was found to be 131 °C.

On to `CCOC(=O)C(C)Oc1ccc(Oc2cnc3cc(Cl)ccc3n2)cc1` (stereo unspecified), for which the melting point was found to be 92 °C.

Take `CCOC(=O)[C@H](CCc1ccccc1)N[C@@H](C)C(=O)O`: the melting point lay within 148 to 153 °C.

As to `O=C(CCl)N(c1ccccc1)C1CCCCC1`, the melting point lay within 103 to 105 °C.

Compound `FC(F)(F)c1cnc(N2CCNCC2)c(Cl)c1` yielded a melting point of 65 to 67 °C.

Turning to `CCOP(=S)(OCC)SC1OCCOC1SP(=S)(OCC)OCC` (stereo unspecified), the melting point was -2 °C.

`CSCCC(NS(=O)(=O)c1ccc(C)cc1)C(=O)O` (racemic) showed a melting point of 105 to 108 °C.

For `Cc1ccn2nc(S(=O)(=O)Nc3c(F)cccc3F)nc2n1`, the melting point worked out at 252 °C.

With `S=C(NN=Cc1c(-c2ccc(Cl)cc2)[nH]c2ccccc12)Nc1ccc(Cl)cc1`, the melting point fell in the range of 215 to 217 °C.

With `CCOC(=O)CCCCCC(=O)OCC`, the melting point is -24 °C.

`Clc1ccc(C(c2ccccc2Cl)C(Cl)Cl)cc1` (stereo unspecified) yielded a melting point of 77 °C.

Compound `Nc1ccccc1CO` registered a melting point of 83.5 °C.

Regarding `COc1cc2c(cc1OC)CN1C(=O)C(C)NC(=O)C1C2` (stereo unspecified), the melting point turned out to be 234 °C.

In turn, `C[C@H](CC=C(c1ccccc1)c1ccccc1)[C@H]1CC[C@H]2[C@@H]3C(O)CC4CC(O)CC[C@]4(C)[C@H]3CC(O)[C@]12C` (stereo partly specified) registered a melting point of 220 °C.

In turn, `Nc1ncc(Cl)cc1Br` returned a melting point of 84 °C.

In turn, `COc1ccc(Cl)cc1C` registered a melting point of 34 °C.

The melting point is the temperature, or range, at which the solid turns liquid.
